Data published in BindingDB's records for doi:10.1016/j.bmcl.2006.10.060 (Merck Research Laboratories, 2007).

experiment: Antagonist activity against human CCR2 receptor assessed as inhibition of MCP1-induced migration of human peripheral blood monocytes

SMILES	IC50 [nM]
O=C(CCCc1cc(-c2cc(Cl)cc(Cl)c2)nn1-c1ccc2ccccc2c1)NCCCc1ccncc1 [4-(3-(3,5-dichlorophenyl)-1-(naphthalen-2-yl)-1H-pyrazol-5-yl)-N-(3-(pyridin-4-yl)propyl)butanamide]	1400
CCN(CC)CCCC(C)NC(=O)CCNc1cc(-c2cc(Cl)cc(Cl)c2)nn1-c1ccc2ccccc2c1 (stereo unspecified) [3-(3-(3,5-dichlorophenyl)-1-(naphthalen-2-yl)-1H-pyrazol-5-ylamino)-N-(5-(diethylamino)pentan-2-yl)propanamide]	54
COC(=O)[C@H](CCCN=C(N)N)NC(=O)CCCc1cc(-c2cc(Cl)cc(Cl)c2)nn1-c1ccc2ccccc2c1 [(S)-2-{4-[5-(3,5-dichloro-phenyl)-2-naphthalen-2-yl-2H-pyrazol-3-yl]-butyrylamino}-5-guanidino-pentanoic acid methyl ester]	185
COC(=O)[C@H](CCCN=C(N)N)NC(=O)CCOc1cc(-c2cc(Cl)cc(Cl)c2)nn1-c1ccc2ccccc2c1 [(S)-2-{3-[5-(3,5-dichloro-phenyl)-2-naphthalen-2-yl-2H-pyrazol-3-yloxy]-propionylamino}-5-guanidino-pentanoic acid methyl ester]	118
CCN(CC)CCCC(C)NC(=O)CCOc1cc(-c2cc(Cl)cc(Cl)c2)nn1-c1ccc2ccccc2c1 (stereo unspecified) [3-(3-(3,5-dichlorophenyl)-1-(naphthalen-2-yl)-1H-pyrazol-5-yloxy)-N-(5-(diethylamino)pentan-2-yl)propanamide]	280
CCC(C)CC(CCCN(CC)CC)NC(=O)CCOc1cc(-c2cc(Cl)cc(Cl)c2)nn1-c1ccc2ccccc2c1 (stereo unspecified) [3-(3-(3,5-dichlorophenyl)-1-(naphthalen-2-yl)-1H-pyrazol-5-yloxy)-N-(1-(diethylamino)-6-methyloctan-4-yl)propanamide]	225
CCCC(CCCN(CC)CC)NC(=O)CCOc1cc(-c2cc(Cl)cc(Cl)c2)nn1-c1ccc2ccccc2c1 (stereo unspecified) [3-(3-(3,5-dichlorophenyl)-1-(naphthalen-2-yl)-1H-pyrazol-5-yloxy)-N-(1-(diethylamino)heptan-4-yl)propanamide]	154

Further compounds by falling IC50, results first:

IC50 [nM]	SMILES
178	CCN(CC)CCCC(CC(C)C)NC(=O)CCOc1cc(-c2cc(Cl)cc(Cl)c2)nn1-c1ccc2ccccc2c1 (stereo unspecified) [3-(3-(3,5-dichlorophenyl)-1-(naphthalen-2-yl)-1H-pyrazol-5-yloxy)-N-(1-(diethylamino)-6-methylheptan-4-yl)propanamide]
83	CCC(CCCN(CC)CC)NC(=O)CCOc1cc(-c2cc(Cl)cc(Cl)c2)nn1-c1ccc2ccccc2c1 (stereo unspecified) [3-(3-(3,5-dichlorophenyl)-1-(naphthalen-2-yl)-1H-pyrazol-5-yloxy)-N-(6-(diethylamino)hexan-3-yl)propanamide]
68	COC(=O)[C@H](CCCN=C(N)N)NC(=O)CCNc1cc(-c2cc(Cl)cc(Cl)c2)nn1-c1ccc2ccccc2c1 [(S)-2-{3-[5-(3,5-dichloro-phenyl)-2-naphthalen-2-yl-2H-pyrazol-3-ylamino]-propionylamino}-5-guanidino-pentanoic acid methyl ester]
32	CCN(CC)CCCC(NC(=O)CCOc1cc(-c2cc(Cl)cc(Cl)c2)nn1-c1ccc2ccccc2c1)C(C)C (stereo unspecified) [3-(3-(3,5-dichlorophenyl)-1-(naphthalen-2-yl)-1H-pyrazol-5-yloxy)-N-(6-(diethylamino)-2-methylhexan-3-yl)propanamide]
